Reference: patent US3933800A, “New 3-formylrifamycin SV derivatives” (Gruppo Lepetit S.p.A., priority 1971, dated 1976)

Tests used:
[1] = test system: RNA dependent DNA polymerase of murine sarcoma virus (endogenous) and DNA dependent DNA polymerase activity of purified enzymes; test: inhibition of murine sarcoma virus DNA polymerase (3H-dTTP incorporation); format: biochemical; conditions: at a concentration of 2-100 μg/ml or less; 60 min
Description: The inhibiting activity of the invention compounds has been tested on RNA dependent DNA polymerase of murine sarcoma virus (endogenous) and DNA dependent DNA polymerase activity of purified enzymes. The inhibition was tested according to the methods described by C. Gurgo et al., Nature, New Biology, 229, 111, 1971.
The effect of different concentrations of drugs on polymerase activity was determined by following 3H-dTTP (tritiated thymine deoxyriboside triphosphate) incorporation into the insoluble fraction. A typical example of the experimental procedures is the following: Isolation of virus and purification of viral polymerase
Virus was isolated and purified from murine sarcoma virus (Moloney isolate) transformed rat cells (78Al cells) and murine sarcoma virus (Harvey isolate) transformed mouse cells (MEH cells) as previously described (Green et al., Proc. Nat. Acad. Sci. USA 67. 385-393, 1970, Rokutanda et al., Nature, 227, 1026-1028, 1970). The virion polymerase was purified 20-40 fold by incubation of purified virus with 0.5% NP-40 (nonidet P-40) in 0.1 M NaCl, 0.01 M Tris buffer (pH 7.6), 0.001 M EDTA for 5 minutes at room temperature and zonal centrifugration in 15-30% sucrose gradients in 10 mM (millimoles) sodium phosphate buffer (pH 7.4), 2.5 mM MgCl2, 10 mM dithiothreitol, and 5% glycerol for 24 hours at 38.000 rpm in a Spinco SW41 rotor. The peak fractions of enzyme activity (13-17) of twenty-two fractions collected, were pooled, and stored at -70°C in 30% glycerol. DNA polymerase assay
Enzyme incubation was performed for 1 hour at 37°C in 100 μl of reaction mixture containing 40 mM Tris buffer (pH 8.0), 5mM dithiothreitol, 30 mM NaCl, 2.5 mM MgCl2, 0.1 mM daTP, dGTP, dCTP, and 10 μCi of ^3 H-dTTP (12-18 Ci/mmole) as described by Green et al., in Proc. Nat. Acad. Sci. US 67, 385-393, 1970. The reaction was terminated by the addition of 150 μ l of 1N perchloric acid. Calf thymus DNA (100 μg) were added as carrier; the radioactive DNA product was processed as described in the two papers mentioned above.
Endogenous RNA dependent DNA polymerase activity was measured after the addition of 0.01% PN-40 to purified virus at the time of assay. The DNA polymerase activity of purified viral polymerase was measured with 2 μg of poly d(A-T) as template and no NP-40. Test for inhibition by rifamycin derivatives
Rifamycin derivatives were dissolved in dimethylsulfoxide (DMSO) at a concentration of 5 mg/ml and stored at 4°C. Inhibition of the endogenous RNA dependent DNA polymerase activity was tested by adding 2 μ l of derivative appropriately diluted in DMSO or 2 μ l of DMSO (control) to the assay mixture prior to addition to disrupted virus which contained 15 to 30 μg of viral protein. Enzyme incubation was performed for 60 minutes at 37°C. Inhibition of purified enzyme was tested by pre-incubation of 2 μl of derivative of DMSO with 30 μl of enzyme (1 to 2 μg protein) for 10 minutes at 37°C; then 70 μ l of substrate mixture were added and the mixture further incubated and processed as described above.

leukemic polymerase = test: inhibition of DNA polymerase of human leukemic blood lymphoblasts; format: biochemical; conditions: synthetic RNA template (poly rA.rU)
Excerpt: Similar results were found by using tumor cell polymerases of human origin. In this case the inhibiting activity was studied also on normal cells polymerases to characterize a selective effect. Representative rifamycin derivatives of formula I have been evaluated for their effects on […] purified DNA polymerase isolated from (I) human normal (PHA stimulated) blood lymphocytes (2) a lymphoblast cell line (derived from a normal donor) and (3) human leukemic blood lymphoblast. Synthetic and/or native templates were used.
Leukemic lymphoblasts were isolated from the peripheral blood of patients with acute lymphocytic leukemia (ALL) by leukophoresis. The cells were washed and erythrocytes removed by hypotonic lysis. Normal lymphocytes were obtained from the peripheral blood from healthy donors after removal of granulocytes by nylon column chromatography. They were stimulated with phytohemagglutinin (PHA) for 72 hours as described before (Gallo et al., Nature, 228, 927, 1970; Gallo et al. Science, 165, 400, 1968) in order to maximize DNA polymerase activity.
Cellular DNA polymerase were extracted and purified from normal blood (PHA stimulated) lymphocytes, and leukemic blood lymphocytes and 1788 lymphoid cells by homogenization in hypotonic buffer followed by Triton X 100 and/or high salt extraction of the extraylsosomal pellet. After differential centrifugation cellular extracts were further purified by DEAE cellulose, phosphocellulose, and Sephadex G 200 column chromatography. DNA polymerase Assays
DNA polymerase assays were carried out in a final volume of 100 μ l. The assay mixture contained Tris-HCl buffer, pH 8.3, 50 mM; MgAc, 6.0 mM; dithiothretiol, 8.0 mM; NaCl, 60 mM. […]
In these cases reactions were initiated by adding enzyme to the complete reaction mixture which included the inhibitor. […] The products were collected on Millipore filter, washed extensively with 5% TCA and 1 ml. of DMSO-ethanol-0.1 M NaCl mixture (0.5:70;29.5), dried and counted in 2 ml. of BBS3 (Beckman) and 10 ml. of liquifluor (New England Nuclear) in a Packard liquid scintillation counter.

[2] = test system: polymerase from murine leukemia virus (reverse transcriptase); test: inhibition of polymerase from murine leukemia virus; format: biochemical; conditions: endogenous 70S RNA template
Description: The inhibiting effect of reverse transcriptase has been confirmed also by test on polymerase from murine leukemia virus. Murine leukemia virus RNA polymerase was prepared from TRITON X 100 disrupted virions as described by Gallo et al., Nature, New Biology, 232, 141 (1971). Virus of both Rauscher and Moloney types were previously purified by banding in the 1.16 g/ml region of a sucrose density gradient after initial low speed centrifugation to remove cellular debris and cushioning on 60% sucrose through 20% sucrose. Final concentration of virus preparation was at 10^11 particles/ml. As template endogenous 70S RNA was used.

[3] = test system: bacteria which had become resistant to the other rifamycins; conditions: namely rifampicin; cited from earlier work
bacteria = conditions: cited from earlier work

For `CCCCON=Cc1c2c(O)c3c(O)c(C)c4c(c3c1O)C(=O)C(C)(OC=CC(OC)C(C)C(OC(C)=O)C(C)C(O)C(C)C(O)C(C)C=CC=C(C)C(=O)N2)O4` (stereo not drawn) [Example 4], the “incorporation of 3H-dTTP relative to control tests” value [1] was “less than 10%”.
In the case of `CCCCCON=Cc1c2c(O)c3c(O)c(C)c4c(c3c1O)C(=O)C(C)(OC=CC(OC)C(C)C(OC(C)=O)C(C)C(O)C(C)C(O)C(C)C=CC=C(C)C(=O)N2)O4` (stereo not drawn) [Example 5], the “susceptibility compared with synthetic DNA template” value (leukemic polymerase) is reported as “even more susceptible”, the “incorporation of 3H-dTTP relative to control tests” value [1] is reported as “less than 10%” and the “concentration giving inhibition of about 50 percent” value [2] is reported as 10 to 25 µg/mL.
With `CCCCCCCCON=Cc1c2c(O)c3c(O)c(C)c4c(c3c1O)C(=O)C(C)(OC=CC(OC)C(C)C(OC(C)=O)C(C)C(O)C(C)C(O)C(C)C=CC=C(C)C(=O)N2)O4` (stereo not drawn) [Example 6] the “susceptibility compared with synthetic DNA template” value (leukemic polymerase) was “even more susceptible”, the “incorporation of 3H-dTTP relative to control tests” value [1] was “less than 10%” and the “concentration giving inhibition of about 50 percent” value [2] was 10 to 25 µg/mL.
With `COC1C=COC2(C)Oc3c(C)c(O)c4c(O)c(c(C=NOCCc5ccccc5)c(O)c4c3C2=O)NC(=O)C(C)=CC=CC(C)C(O)C(C)C(O)C(C)C(OC(C)=O)C1C` (stereo not drawn) [Example 13] the “incorporation of 3H-dTTP relative to control tests” value [1] was “less than 10%”.
For `COC1C=COC2(C)Oc3c(C)c(O)c4c(O)c(c(C=NOCCCc5ccccc5)c(O)c4c3C2=O)NC(=O)C(C)=CC=CC(C)C(O)C(C)C(O)C(C)C(OC(C)=O)C1C` (stereo not drawn) [Example 14], the “susceptibility compared with synthetic DNA template” value (leukemic polymerase) was “even more susceptible”, the “incorporation of 3H-dTTP relative to control tests” value [1] was “less than 10%” and the “concentration giving inhibition of about 50 percent” value [2] was 10 to 25 µg/mL.
In the case of `COC1C=COC2(C)Oc3c(C)c(O)c4c(O)c(c(C=NOC(c5ccccc5)c5ccccc5)c(O)c4c3C2=O)NC(=O)C(C)=CC=CC(C)C(O)C(C)C(O)C(C)C(OC(C)=O)C1C` (stereo not drawn) [Example 16], the “incorporation of 3H-dTTP relative to control tests” value [1] is reported as “less than 10%”.
For `CON=Cc1c2c(O)c3c(O)c(C)c4c(c3c1O)C(=O)C(C)(OC=CC(OC)C(C)C(OC(C)=O)C(C)C(O)C(C)C(O)C(C)C=CC=C(C)C(=O)N2)O4` (stereo not drawn) [O-methyl], the “effect against resistant bacteria” value [3] is listed as “practically no effect” and the antibacterial activity (bacteria) is listed as “good antibacterial activity”.
In the case of `COC1C=COC2(C)Oc3c(C)c(O)c4c(O)c(c(C=NOCCN5CCOCC5)c(O)c4c3C2=O)NC(=O)C(C)=CC=CC(C)C(O)C(C)C(O)C(C)C(OC(C)=O)C1C` (stereo not drawn) [O-morpholinoethyl], the “effect against resistant bacteria” value [3] is listed as “practically no effect” and the antibacterial activity (bacteria) is listed as “good antibacterial activity”.
For `COC1C=COC2(C)Oc3c(C)c(O)c4c(O)c(c(C=NO)c(O)c4c3C2=O)NC(=O)C(C)=CC=CC(C)C(O)C(C)C(O)C(C)C(OC(C)=O)C1C` (stereo not drawn) [oxime of 3-formylrifamycin SV], the “effect against resistant bacteria” value [3] is listed as “practically no effect” and the antibacterial activity (bacteria) is listed as “good antibacterial activity”.
